Test results: patent publication US20070078179A1, “Use of a fibrate and orlistat for the treatment of obesity” (Foumier Laboratories Ireland Limited, priority 2003, published 2007)

Assay: Effect of fenofibrate and orlistat co-administration on body weight of mice fed a high-fat diet
Type: in vivo
Conditions: for Gain: body weight gain over 6 weeks, * p<0.05 relative to Group 5 (standard diet); for Gain / Body weight after 6 weeks: mice fed with high-fat diet, drug p.o. mixed with the diet (fenofibrate 25 mg/kg, orlistat 2.5 mg/kg), mean±sem; for Body weight after 6 weeks: in g (unit assumed)
Description: This study was designed to evaluate the effects of using a combination of fenofibrate and orlistat on body weight. Method Animals: Mice weighing approximately 20 g were received from CERJ. They were put into individual cages in a temperature-, humidity- and light-controlled room (21-23° C., 12-12 h light-dark cycle). […] After acclimatization, they were randomized into groups of 20 animals, based on body weight. The experimental groups were: • a Group 1: mice fed with high-fat diet • Group 2: mice fed with high-fat diet, treated with fenofibrate 25 mg/kg p.o., mixed with the diet • Group 3: mice fed with high-fat diet, treated with orlistat 2.5 mg/kg p.o., mixed with the diet • Group 4: mice fed with high-fat diet, treated with fenofibrate 25 mg/kg p.o. and orlistat 2.5 mg/kg p.o., mixed with the diet • Group 5: mice fed with standard diet Statistics: All data are presented as mean±sem. Results were subjected to Dunnett's t test. A p<0.05 was considered significant.

Row | SMILES | Difference from mice with a standard diet (normalization of the body weight) (after 6 weeks of treatment, mice with a high-fat diet compared with mice with a standard diet, Dunnett's t test) | Gain | Body weight after 6 weeks
1 | CCCCCCCCCCC[C@@H](C[C@@H]1OC(=O)[C@H]1CCCCCC)OC(=O)[C@H](CC(C)C)NC=O (relative stereo) [orlistat, [2S-[2α(R*),3β]]-N-formyl-L-leucine 1-[(3-hexyl-4-oxo-2-oxetanyl)methyl]dodecyl ester] | significant difference | 7.59 ± 0.28* | 27.12 ± 0.39
2 | CC(C)OC(=O)C(C)(C)Oc1ccc(C(=O)c2ccc(Cl)cc2)cc1 [fenofibrate] | – | 7.60 ± 0.43* | 27.25 ± 0.47
